Assay results reported in ChEMBL document CHEMBL1201862, “PubChem BioAssay data set” (2004).
The source made the active and inactive calls.

Assays:
[1] = microbe, parasite or virus in culture; type: functional; settings: Mycobacterium tuberculosis
Large T antigen = Large T antigen (Simian virus 40, UniProt P03070); type: functional, Betapolyomavirus macacae;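 also: Confirmatory-stage PubChem screen for compounds that inhibit SV40 T antigen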
[2] = Trypanosoma cruzi growth suppression in host cells – NIH3T3 host cells, beta-gal luminescence, confirmation (AID 2044); type: functional, cell-based;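 also: intracellular parasites grown in NIH/3T3 mouse fibroblasts as host cells; luminescent beta-galactosidase reporter signal from transgenic T. cruzi replicating inside host cells; inhibitors lower the luminescence signal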
[3] = NIH3T3 cell viability loss – ATP luminescence, mouse fibroblasts, counter-screen, dose response (AID 2010); type: functional, cell-based;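 also: cells exposed to compound for about 90 hours before reading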
cells [4] = experiment: cells
cells [5] = type: functional, cell-based
cells [6] = type: functional, cell-based; remark: listed apart in the source
[7] = molecular target: T1, Corticotropin-releasing factor receptor 2/Corticotropin-releasing factor-binding protein (Homo sapiens, UniProt P24387+Q13324); experiment: Dose Response confirmation of uHTS hits for small molecule antagonists of the CRF-binding protein and CRF-R2 receptor complex.; type: functional; settings: read-out: IC50_Mean
T1 sequence (Q13324 whole entry): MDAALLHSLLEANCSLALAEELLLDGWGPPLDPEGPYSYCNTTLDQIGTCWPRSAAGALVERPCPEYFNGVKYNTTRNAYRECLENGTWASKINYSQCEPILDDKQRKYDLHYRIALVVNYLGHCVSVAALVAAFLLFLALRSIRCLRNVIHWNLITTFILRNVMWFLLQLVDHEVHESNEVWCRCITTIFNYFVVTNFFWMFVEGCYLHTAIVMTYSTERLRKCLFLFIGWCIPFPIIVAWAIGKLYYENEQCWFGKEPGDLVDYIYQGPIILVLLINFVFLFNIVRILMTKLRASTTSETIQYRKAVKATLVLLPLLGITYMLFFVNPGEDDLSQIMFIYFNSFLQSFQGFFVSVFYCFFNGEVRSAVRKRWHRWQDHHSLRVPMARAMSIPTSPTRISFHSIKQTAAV
T1 sequence (P24387 whole entry): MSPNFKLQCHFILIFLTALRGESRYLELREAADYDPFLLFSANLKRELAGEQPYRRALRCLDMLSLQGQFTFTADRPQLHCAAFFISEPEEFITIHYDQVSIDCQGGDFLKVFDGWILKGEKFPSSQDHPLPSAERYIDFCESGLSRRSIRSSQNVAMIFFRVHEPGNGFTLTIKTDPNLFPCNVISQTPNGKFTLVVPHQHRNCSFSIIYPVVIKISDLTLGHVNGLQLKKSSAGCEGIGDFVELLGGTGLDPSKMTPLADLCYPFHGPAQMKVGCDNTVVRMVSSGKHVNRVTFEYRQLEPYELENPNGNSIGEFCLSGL

[8] = molecular target: T1, Corticotropin-releasing factor receptor 2/Corticotropin-releasing factor-binding protein; experiment: activators of CRF receptor 2 with binding protein – uHTS hits, confirmation (AID 602473); type: functional; settings: read-out: EC50_Mean
[9] = loss of viability in HepG2 cells – cell-based, CellTiter-Glo, cherry-picked, cytotoxicity control for Shn3 inhibitor project, dose response (AID 624134); type: functional
[10] = non-specific 3'UTR reporter inhibition in Clone20-Shn3RL – cell-based, Renilla luciferase, cherry-picked, counter-screen for Shn3 inhibitor project, dose response (AID 624133); type: functional
[11] = reduction of Shn3 3'UTR-driven luciferase in osteoblasts – cell-based, Clone20 osteoblasts, firefly luciferase, cherry-picked, dose response (AID 624132); type: functional;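 also: firefly luciferase luminescence from reporter carrying the Shn3 3'UTR in osteoblasts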
H4 = experiment: Luminescence Cell-Based Dose Response HTS to Identify Activators of 5'UTR Stem-Loop Driven Prion Protein mRNA Translation in H4 Neuroglioblastoma Cells. [Related pubchem assays: 1829 (Project Summary), 1814 (Primary HTS)]; type: functional; settings: Homo sapiens
[12] = Luminescence Cell-Based Dose Response HTS to Identify Activators of Luciferase Translation or Activity in H4 […] Cells. [Related pubchem assays: 1829 (Project Summary), 1814 (Primary HTS)]; type: functional
[13] = THP-1 cell cytotoxicity, dose response, cytotoxicity control for non-replicating M. tuberculosis project (AID 489025); type: functional
cells [14] = type: functional
[15] = Luminescence Cell-Based Dose Retest to Confirm Inhibitors of Cancer Stem Cells. [Related pubchem assays (depositor defined):AID2717, AID2721]; type: functional; settings: Homo sapiens
[16] = NIH-3T3 fibroblast cytotoxicity, dose response, cytotoxicity control, cell-based, fluorescence, Alamar Blue, secondary assay (AID 2327); type: functional;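 also: NIH-3T3 mouse fibroblasts cultured with fluconazole at 8 µg/mL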
[17] = fluconazole-exposed Candida albicans growth modulators – fluorescence, retest, confirmation (AID 2467); type: functional, cell-based
[18] = molecular target: T2, Heat shock factor protein 1 (Mus musculus, UniProt P38532); experiment: decrease of HSF1-responsive luciferase luminescence – cell-based, NIH3T3, dose retest, confirmation (AID 2382); type: functional;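 also: NIH3T3 fibroblasts with HSF1-driven luciferase reporter stressed by proteasome inhibitor MG132; luminescence from HSF1-driven luciferase expression after 8 hours of MG132 stress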
T2 sequence (P38532 whole entry): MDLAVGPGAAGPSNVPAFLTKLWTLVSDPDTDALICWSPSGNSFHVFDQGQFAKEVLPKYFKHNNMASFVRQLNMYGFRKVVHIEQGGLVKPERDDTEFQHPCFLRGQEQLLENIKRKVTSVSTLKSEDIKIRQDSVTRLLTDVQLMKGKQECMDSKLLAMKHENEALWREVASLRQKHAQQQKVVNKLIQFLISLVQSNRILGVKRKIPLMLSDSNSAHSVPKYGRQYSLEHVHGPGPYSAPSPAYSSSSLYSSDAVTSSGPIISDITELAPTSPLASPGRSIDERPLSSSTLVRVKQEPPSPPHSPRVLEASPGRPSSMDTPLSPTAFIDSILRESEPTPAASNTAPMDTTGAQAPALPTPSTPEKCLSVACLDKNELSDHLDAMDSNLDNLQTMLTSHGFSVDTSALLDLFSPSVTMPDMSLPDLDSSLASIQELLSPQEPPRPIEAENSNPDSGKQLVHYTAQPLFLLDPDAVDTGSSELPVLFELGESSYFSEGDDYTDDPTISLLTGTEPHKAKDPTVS

[19] = molecular target: T3, Calpain-2 catalytic subunit (Sus scrofa, UniProt P43367); experiment: m-calpain protease blockers, concentration series – biochemical, fluorogenic peptide substrate, dose response (AID 1420); type: functional
T3 sequence (P43367 whole entry): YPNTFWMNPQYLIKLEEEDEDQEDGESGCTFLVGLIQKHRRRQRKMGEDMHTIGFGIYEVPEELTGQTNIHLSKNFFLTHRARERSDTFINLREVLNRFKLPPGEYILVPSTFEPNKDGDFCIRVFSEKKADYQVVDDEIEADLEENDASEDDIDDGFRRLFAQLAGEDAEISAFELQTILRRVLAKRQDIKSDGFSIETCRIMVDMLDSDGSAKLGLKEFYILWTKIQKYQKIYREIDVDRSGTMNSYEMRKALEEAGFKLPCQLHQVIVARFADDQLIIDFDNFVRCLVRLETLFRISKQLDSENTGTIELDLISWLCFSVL

Large T antigen, sequence (P03070 whole entry): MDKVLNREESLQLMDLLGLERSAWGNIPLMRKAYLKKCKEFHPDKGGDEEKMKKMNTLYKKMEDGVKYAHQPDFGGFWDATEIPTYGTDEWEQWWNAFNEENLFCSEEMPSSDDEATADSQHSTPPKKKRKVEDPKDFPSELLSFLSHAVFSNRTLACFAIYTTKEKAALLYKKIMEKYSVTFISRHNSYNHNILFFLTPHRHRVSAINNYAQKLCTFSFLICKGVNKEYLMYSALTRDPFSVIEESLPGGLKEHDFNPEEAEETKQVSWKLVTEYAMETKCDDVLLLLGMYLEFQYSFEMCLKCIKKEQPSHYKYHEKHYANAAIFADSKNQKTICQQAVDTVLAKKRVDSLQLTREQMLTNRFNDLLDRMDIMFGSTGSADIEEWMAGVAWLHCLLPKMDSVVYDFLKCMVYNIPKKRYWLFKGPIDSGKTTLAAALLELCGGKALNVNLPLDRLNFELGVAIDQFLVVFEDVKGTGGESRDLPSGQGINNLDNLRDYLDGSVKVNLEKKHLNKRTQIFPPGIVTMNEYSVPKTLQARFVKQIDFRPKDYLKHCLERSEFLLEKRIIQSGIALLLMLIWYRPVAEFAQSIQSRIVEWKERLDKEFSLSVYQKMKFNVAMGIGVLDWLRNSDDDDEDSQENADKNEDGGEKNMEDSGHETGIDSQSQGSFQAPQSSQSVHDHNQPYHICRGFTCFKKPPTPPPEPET

O=C(CN1CCN(c2ccccc2O)CC1)Nc1ccccc1C(=O)NCCc1ccccc1
CC50 [1]: > 40 µM (active)

N#CSCC(=O)N1c2ccccc2CCc2ccccc21
IC50 (Large T antigen): 22 µM (active)

O=C(CC12CC3CC(CC(C3)C1)C2)N/N=C/c1ccc([N+](=O)[O-])o1
EC50 [2]: < 0.1 µM (active)
EC50 [3]: > 60 µM (not active)
EC50 (cells [4]): 0.019 µM (active)

COc1ccc(/C=C2/CCc3ccccc3C2=O)cc1CN1CCOCC1
EC50 [2]: < 0.1 µM (active)
EC50 [3]: > 60 µM (not active)
EC50 (cells [4]): 0.245 µM (active)

COCc1nnc(NC(=O)c2cc(Cl)ccc2OC)s1
EC50 (cells [5]): > 350 µM (not active)
EC50 (cells [6]): > 350 µM (not active)

CCc1ccc2nc(N(CCN(C)C)C(=O)c3ccc4ncsc4c3)sc2c1
EC50 [2]: < 0.1 µM (active)
EC50 [3]: > 60 µM (not active)
EC50 (cells [4]): 0.088 µM (active)

CNc1nc(Cl)nc(Nc2ccccc2)n1
IC50 [7]: > 47.1 µM (inactive)
EC50 [8]: > 53 µM (inactive)

CCOC(=O)c1cc(S(=O)(=O)Nc2ccc(F)cc2F)cn1C
IC50 [7]: > 47.1 µM (inactive)
EC50 [8]: > 53 µM (inactive)

COc1ccc(CN2CCNC(=O)C2CC(=O)N(C)CC2CCOCC2)cc1OC (centres undefined)
EC50 (cells [5]): > 350 µM (not active)
EC50 (cells [6]): > 350 µM (not active)

CN(c1ccccc1)S(=O)(=O)c1cc(C(=O)OCC(=O)N2CCN(C(=O)c3ccco3)CC2)ccc1Cl
AC50 [9]: > 70 µM (inactive)
AC50 [10]: 30.6 µM (active)
AC50 [11]: 62.9 µM (active)

C=CC(=O)Oc1ccc(N2Cc3ccccc3C2=O)cc1
IC50 (Large T antigen): 4.45 µM (active)

O=C(CC(Sc1ccc(Br)cc1)C(=O)O)c1ccc(Br)cc1 (centres undefined)
IC50 (Large T antigen): 49.4 µM (active)

Cn1c(C(=O)NCC2CCCO2)cc2oc3ccccc3c21 (centres undefined)
EC50 (H4): 47 µM (active)
EC50 [12]: 0.289 µM (active)

Cc1ccc2sc(N(CCCN(C)C)C(=O)c3ccc(S(=O)(=O)N4CCOCC4)cc3)nc2c1C
EC50 [2]: < 0.1 µM (active)
EC50 [3]: > 60 µM (not active)
EC50 (cells [4]): 0.408 µM (active)

CCn1cnc2cc(NCc3cccc(OC)c3O)ccc21
IC50 (Large T antigen): 13.3 µM (active)

COc1ccc(-c2nnn(CC(=O)OC3CCCCC3)n2)cc1OC
CC50 [13]: > 40 µM (active)
IC50 (cells [14]): 11.6 µM (active)

CC(C)(C)NC(=O)C(c1c[nH]c2ccccc12)N(C(=O)Cn1nnc(-c2ccc(F)cc2)n1)c1cccc(O)c1 (centres undefined)
CC50 [1]: > 40 µM (active)

CCCCNS(=O)(=O)c1ccc(S(=O)(=O)NCc2ccncc2)cc1
AC50 [9]: 6.47 µM (active)
AC50 [10]: 23 µM (active)
AC50 [11]: 2.4 µM (active)

CN(C)CCCNC(=O)c1ccccc1Oc1ccccc1
IC50 [7]: > 47.1 µM (inactive)
EC50 [8]: > 53 µM (inactive)

COc1ccccc1CN=C(S)Nc1ccc2nc(N3CCN(C)CC3)cc(C)c2c1
EC50 [2]: < 0.1 µM (active)
EC50 [3]: > 60 µM (not active)
EC50 (cells [4]): 0.129 µM (active)
AC50 [15]: 0.168 µM (active)

Cc1ccc2[nH]c(C)c(CCNC(=O)c3cc4cc([N+](=O)[O-])ccc4oc3=O)c2c1
CC50 [1]: > 40 µM (active)
IC50 (cells [14]): 4.92 µM (active)

Cc1cccc(COc2ccccc2/C=N/Nc2ccc([N+](=O)[O-])cc2)c1
CC50 [1]: > 40 µM (active)
EC50 [16]: > 150 µM (inactive)
EC50 [17]: > 38 µM (not active)

Cc1ccc(NC(=O)c2ccc(Nc3c([N+](=O)[O-])cc([N+](=O)[O-])cc3[N+](=O)[O-])cc2)cc1
EC50 [18]: 8.29 µM (active)
EC50 [2]: < 0.1 µM (active)
EC50 [3]: 15.8 µM (active)
EC50 (cells [4]): 0.071 µM (active)

CCOc1ccc(CN2CCCC(N3CCN(c4ccc(OC)cc4)CC3)C2)cc1 (centres undefined)
EC50 [2]: < 0.1 µM (active)
EC50 [3]: > 60 µM (not active)
EC50 (cells [4]): 0.042 µM (active)

CC(C)c1ccc(NC(=O)NC2CCCCC2)cc1
EC50 [12]: 0.114 µM (active)

O=C(N/N=C/c1ccc(O)c(O)c1)c1cc(-c2ccccc2)nc2ccccc12
IC50 (Large T antigen): 54.1 µM (active)

COc1ccc(NC(=S)NCc2cccnc2)cc1
IC50 [7]: 9.74 µM (active)
EC50 [8]: > 53 µM (inactive)

Cc1nn(-c2ccccc2)c(/N=C/c2ccccc2O)c1-c1ccccc1
EC50 (H4): 48.4 µM (active)
EC50 [12]: 45.7 µM (active)

Cc1cc(NC(=O)C23CC4CC(C2)CC(n2cnc([N+](=O)[O-])n2)(C4)C3)no1
EC50 [2]: < 0.1 µM (active)
EC50 [3]: > 30 µM (not active)
EC50 (cells [4]): 0.089 µM (active)

O=C(Nc1cccc(-c2nc3ccccc3s2)c1)c1cc(-n2cnnc2)ccc1Cl
CC50 [1]: > 40 µM (active)
EC50 [16]: 20.3 µM (inconclusive)
EC50 [17]: 2.98 µM (active)

O=C(NCCc1ccccc1)c1cc2sccc2n1Cc1ccccc1
EC50 (cells [5]): > 350 µM (not active)
EC50 (cells [6]): > 350 µM (not active)

Cc1ccc(S(=O)(=O)N2CCc3ccccc3CC2)cc1
AC50 [9]: 44.8 µM (active)
AC50 [10]: 3.03 µM (active)
AC50 [11]: 3.29 µM (active)

Cc1ccc(C(=O)C=CNNC(=O)c2ccccc2)cc1
CC50 [13]: > 40 µM (active)

Cn1c(=O)c2c3c(sc2n2c(SCC(N)=O)nnc12)CC(C(C)(C)C)CC3 (centres undefined)
CC50 [1]: > 40 µM (active)
IC50 [19]: 42.9 µM (not active)
